Consider 13 molecules from ChEMBL document CHEMBL3860050, “Triterpenoids from Momordica balsamina: Reversal of ABCB1-mediated multidrug resistance” (Bioorg Med Chem, 2016).

Series [1] is described as follows: Antiproliferative activity against mouse L5178Y cells measured after 72 hrs by MTT assay. It counts as functional, cell-based.
Series [2] deals with T1, ATP-dependent translocase ABCB1 (Homo sapiens, UniProt P08183). Kind of series: Inhibition of MDR1-mediated efflux-pump activity in mouse L5178Y cells expressing human MDR1 assessed as fluorescence activity ratio at 2 uM preincubated for 10 mins followed by rhodamine-123 addition measured after 20 mins by flow cytometry. It counts as cell-based.
T1 sequence (P08183 whole entry): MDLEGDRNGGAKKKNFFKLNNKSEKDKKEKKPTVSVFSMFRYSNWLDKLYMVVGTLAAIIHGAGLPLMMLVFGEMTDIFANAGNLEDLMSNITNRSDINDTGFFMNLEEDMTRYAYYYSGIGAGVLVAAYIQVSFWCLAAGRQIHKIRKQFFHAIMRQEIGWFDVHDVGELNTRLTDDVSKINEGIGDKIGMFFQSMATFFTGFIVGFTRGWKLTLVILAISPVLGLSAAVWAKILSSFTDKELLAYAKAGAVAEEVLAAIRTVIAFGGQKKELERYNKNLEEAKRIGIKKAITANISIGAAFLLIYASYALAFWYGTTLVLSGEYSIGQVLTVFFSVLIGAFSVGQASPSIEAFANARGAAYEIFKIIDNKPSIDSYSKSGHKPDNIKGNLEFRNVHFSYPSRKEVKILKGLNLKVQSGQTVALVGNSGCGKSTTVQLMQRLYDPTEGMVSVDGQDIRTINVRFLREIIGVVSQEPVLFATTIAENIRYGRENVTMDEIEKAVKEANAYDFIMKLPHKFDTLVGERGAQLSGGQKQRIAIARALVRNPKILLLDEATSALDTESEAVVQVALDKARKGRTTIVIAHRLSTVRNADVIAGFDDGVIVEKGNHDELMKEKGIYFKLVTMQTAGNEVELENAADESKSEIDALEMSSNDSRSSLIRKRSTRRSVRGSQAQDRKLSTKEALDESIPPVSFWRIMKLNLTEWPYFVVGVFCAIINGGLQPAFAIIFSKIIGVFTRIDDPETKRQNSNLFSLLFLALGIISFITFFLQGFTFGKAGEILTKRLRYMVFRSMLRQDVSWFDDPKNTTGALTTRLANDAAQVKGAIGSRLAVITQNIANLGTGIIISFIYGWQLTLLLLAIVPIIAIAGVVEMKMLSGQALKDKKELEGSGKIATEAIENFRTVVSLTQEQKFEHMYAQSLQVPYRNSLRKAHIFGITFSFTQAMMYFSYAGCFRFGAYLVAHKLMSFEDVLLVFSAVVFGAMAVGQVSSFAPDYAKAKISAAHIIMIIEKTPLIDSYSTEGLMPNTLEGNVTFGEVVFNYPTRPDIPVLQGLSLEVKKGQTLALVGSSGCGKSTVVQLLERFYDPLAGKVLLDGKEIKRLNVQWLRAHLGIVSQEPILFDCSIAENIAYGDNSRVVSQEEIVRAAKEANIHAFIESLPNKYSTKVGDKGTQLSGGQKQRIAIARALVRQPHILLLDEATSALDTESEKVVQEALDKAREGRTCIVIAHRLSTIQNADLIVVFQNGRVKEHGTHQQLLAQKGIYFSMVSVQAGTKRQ
In series [3] the target is T1, ATP-dependent translocase ABCB1. Kind of series: Inhibition of MDR1-mediated efflux-pump activity in mouse L5178Y cells expressing human MDR1 assessed as forward scattered light at 20 uM preincubated for 10 mins followed by rhodamine-123 addition measured after 20 mins by flow cytometry (reference value: 455.7 to 509.9). It counts as cell-based.
The target is the same in series [4]. Put plainly: Inhibition of MDR1-mediated efflux-pump activity in mouse L5178Y cells expressing human MDR1 assessed as mean fluorescence intensity at 20 uM preincubated for 10 mins followed by rhodamine-123 addition measured after 20 mins by flow cytometry (reference value: 7.1 to 18.6). It counts as cell-based.
Series [5] shares this target. Kind of series: Inhibition of MDR1-mediated efflux-pump activity in mouse L5178Y cells expressing human MDR1 assessed as mean fluorescence intensity at 2 uM preincubated for 10 mins followed by rhodamine-123 addition measured after 20 mins by flow cytometry (reference value: 7.1 to 18.6). It is filed as cell-based.
For series [6] the target is unchanged. Put plainly: Inhibition of MDR1-mediated efflux-pump activity in mouse L5178Y cells expressing human MDR1 assessed as forward scattered light at 2 uM preincubated for 10 mins followed by rhodamine-123 addition measured after 20 mins by flow cytometry (reference value: 455.7 to 509.9). It counts as cell-based.
Series [7] has the same target. Kind of series: Inhibition of MDR1-mediated efflux-pump activity in mouse L5178Y cells expressing human MDR1 assessed as fluorescence activity ratio at 20 uM preincubated for 10 mins followed by rhodamine-123 addition measured after 20 mins by flow cytometry. It is filed as cell-based.
Series [8] has the same target. Put plainly: Inhibition of MDR1-mediated efflux-pump activity in mouse L5178Y cells expressing human MDR1 assessed as side scattered light at 20 uM preincubated for 10 mins followed by rhodamine-123 addition measured after 20 mins by flow cytometry (reference value: 194.6 to 286.4). It is filed as cell-based.
Series [9] shares this target. Kind of series: Inhibition of MDR1 in mouse L5178Y cells expressing human MDR1 assessed as doxorubicin-induced antiproliferative activity by measuring combination index at 5.7:1 compound to doxorubicin ratio measured after 48 hrs by MTT assay. It counts as cell-based.
For series [10] the target is unchanged. Put plainly: Inhibition of MDR1-mediated efflux-pump activity in mouse L5178Y cells expressing human MDR1 assessed as side scattered light at 2 uM preincubated for 10 mins followed by rhodamine-123 addition measured after 20 mins by flow cytometry (reference value: 194.6 to 286.4). It is filed as cell-based.
Series [11] can be described thus: Antiproliferative activity against mouse L5178Y cells expressing human MDR1 measured after 72 hrs by MTT assay. It is filed as functional, cell-based.

Where only a bound is given, the exact number is not on record here.

Regarding `CC(C)=C[C@H](O)C[C@@H](C)[C@H]1CC[C@@]2(C)[C@@H]3C(=O)C=C4[C@@H](CC[C@H](O)C4(C)C)[C@]3(C)CC[C@]12C` [BALSAMINOL E], the figures for the IC50 in series [1] and in [11] were 41.3 µM and 55.2 µM, respectively. Further, the Ratio in series [2] is reported as 2; in series [7] it was 64.8. Also, the Activity came to 593 in series [3], 582.7 in series [6], 234.5 in [8] and 243.4 in series [10]. The Flu intensity in series [4] is given as 663.1; in series [5], 20.8. The CI in series [9] is listed as 0.721.
On to `CC(C)=C[C@@H](C[C@@H](C)[C@H]1CC[C@@]2(C)[C@@H]3[C@@H](OC(=O)c4ccccc4)C=C4[C@@H](CC[C@H](OC(=O)c5ccccc5)C4(C)C)[C@]3(C)CC[C@]12C)OC(=O)c1ccccc1` [TRIBENZOYLBALSAMINOL F], for which the concentration for half-maximal inhibition (IC50) was 74.7 µM in series [1] and 87.9 µM in series [11]. The Ratio in [2] amounted to 1.3; in series [7], 1.1. The Activity in series [3] worked out at 538.1; in series [6], 524.2; in series [8] it was 181.7; in [10], 188.7. Besides, the Flu intensity was 7.1 in series [4] and 7.6 in [5].
Turning to `COc1ccc(C(=O)O[C@@H](C=C(C)C)C[C@@H](C)[C@H]2CC[C@@]3(C)[C@@H]4[C@@H](OC)C=C5[C@@H](CC[C@H](O)C5(C)C)[C@]4(C)CC[C@]23C)cc1` [KARAVOATE M], the IC50 in series [1] was found to be 59.4 µM; in series [11], 87.5 µM. Moreover, the values for the Ratio in series [2] and in series [7] were 1.8 and 1.7, respectively. For the same molecule, the Activity in series [3] is 531.9; in series [6], 526; in series [8], 181.8; in series [10] it was 192.3. Besides, the Flu intensity in series [4] was determined as 11.4; in [5], 12.3.
`CC(C)=CC(=O)C[C@@H](C)[C@H]1CC[C@@]2(C)[C@@H]3C(=O)C=C4[C@@H](CC[C@H](O)[C@]4(C)CO)[C@]3(C)CC[C@]12C` [BALSAMINOL C]: the IC50 stood at 19 µM in [1] and 42.6 µM in [11]. Besides, the figures for the Ratio in series [2] and in series [7] were 2.9 and 198.9, respectively. Besides, the Activity amounted to 502.2 in [3], 502.3 in series [6], 195.7 in series [8] and 205.4 in [10]. The Flu intensity was 1537.8 in series [4] and 22.3 in series [5]. In addition, the CI in series [9] is given as 0.268.
`C[C@H](C/C=C/C(C)(C)O)[C@H]1CC[C@@]2(C)[C@@H]3[C@@H](O)C=C4[C@@H](CC[C@H](O)C4(C)C)[C@]3(C)CC[C@]12C`: the IC50 in series [1] amounted to 18.7 µM; in series [11], 27.4 µM. Further, the figures for the Ratio in series [2] and in series [7] were 7.1 and 36, respectively. The Activity in series [3] was found to be 395.2; in series [6], 570.5; in series [8], 243.9; in [10] it was 249. Moreover, the Flu intensity in [4] is recorded as 368.4; in [5], 73.1. Also, in series [9], the CI was 0.71.
On to `CO[C@H]1C=C2[C@@H](CC[C@H](OC(=O)CCC(=O)O)C2(C)C)[C@]2(C)CC[C@]3(C)[C@@H]([C@H](C)C[C@H](C=C(C)C)OC(=O)CCC(=O)O)CC[C@@]3(C)[C@H]12`, for which the values for the IC50 in series [1] and in series [11] were 16.9 µM and 46.9 µM, respectively. Further, the Ratio in series [2] is 1.3; in [7] it was 5.9. Further, the Activity in [3] came to 546.7; in [6], 545.8; in [8], 187; in series [10] it was 184.6. For the same molecule, the values for the Flu intensity in series [4] and in series [5] were 39.5 and 8.2, respectively.
Consider `CO[C@H]1C=C2[C@@H](CC[C@H](O)C2(C)C)[C@]2(C)CC[C@]3(C)[C@@H]([C@H](C)C[C@H](C=C(C)C)OC(=O)c4ccc([N+](=O)[O-])cc4)CC[C@@]3(C)[C@H]12` [KARAVOATE I], for which the IC50 in [1] is 29 µM; in series [11] it was 60.4 µM. Also, the Ratio in [2] was found to be 2.1; in [7], 3.9. Also, the Activity amounted to 534.1 in [3], 537.3 in series [6], 182.9 in [8] and 184.1 in [10]. For the same molecule, the Flu intensity in series [4] came out at 25.9; in [5] it was 14.3.
With `C[C@H](C/C=C/C(C)(C)O)[C@H]1CC[C@@]2(C)[C@@H]3[C@@H](O)C=C4[C@@H](CC[C@H](O)C4(C)C)[C@]3(C)C[C@@H](O)[C@]12C` [CUCURBALSAMINOL A], the IC50 in [1] turned out to be 48.2 µM; in series [11], 63.4 µM. Besides, the results for the Ratio in series [2] and in series [7] were 0.7 and 2.9, respectively. Besides, the Activity in series [3] is recorded as 429; in [6], 427.2; in [8] it was 252; in series [10], 254.7. Besides, the Flu intensity in [4] turned out to be 38.2; in series [5], 8.8.
Turning to `CC(C)=C[C@H](O)C[C@@H](C)[C@H]1CC[C@@]2(C)[C@@H]3C(O[C@H]4O[C@@H](CO)[C@H](O)[C@@H](O)[C@@H]4O)C=C4[C@@H](CC[C@H](O)C4(C)C)[C@]3(C)CC[C@]12C` (stereo partly drawn), the IC50 worked out at 19.2 µM in series [1] and 54.2 µM in series [11]. Besides, the Ratio in series [2] was determined as 1; in series [7], 2.3. In addition, the Activity in [3] stood at 573; in series [6] it was 557.9; in [8], 236.9; in series [10], 235.6. Also, the Flu intensity in series [4] was determined as 23.6; in [5], 10.7.
For `CO[C@H]1C=C2[C@@H](CC[C@H](OC(=O)c3ccc([N+](=O)[O-])cc3)C2(C)C)[C@]2(C)CC[C@]3(C)[C@@H]([C@H](C)C[C@H](C=C(C)C)OC(=O)c4ccc([N+](=O)[O-])cc4)CC[C@@]3(C)[C@H]12` [KARAVOATE J], the IC50 was 59.4 µM in series [1] and 87.9 µM in [11]. The Ratio in series [2] is listed as 1.4; in [7], 2.1. The Activity is 537.3 in series [3], 543.4 in series [6], 184.1 in series [8] and 186.3 in [10]. For the same molecule, the Flu intensity in series [4] was found to be 14.3; in [5] it was 9.5.
Regarding `CC(=O)C[C@@H](C)[C@H]1CC[C@@]2(C)[C@@H]3C(=O)C=C4[C@@H](CC[C@H](O)[C@]4(C)CO)[C@]3(C)CC[C@]12C` [BALSAMINOL D], the results for the IC50 in series [1] and in series [11] were 27.8 µM and 67.1 µM, respectively. For the same molecule, the Ratio turned out to be 1 in series [2] and 1.9 in series [7]. The Activity in [3] is recorded as 434.2; in [6], 439.9; in series [8], 256.5; in [10], 254.3. Besides, the values for the Flu intensity in series [4] and in series [5] were 25.9 and 10.3, respectively.
Regarding `CO[C@H]1C=C2[C@@H](CC[C@H](OC(=O)c3ccccc3)C2(C)C)[C@]2(C)CC[C@]3(C)[C@@H]([C@H](C)C/C=C/C(C)(C)O)CC[C@@]3(C)[C@H]12`, the IC50 amounted to 108 µM in [1] and 130 µM in [11]. For the same molecule, the Ratio in series [2] is given as 1; in [7], 7.8. For the same molecule, the Activity in series [3] is listed as 444.8; in series [6], 454.2; in series [8], 235.1; in series [10], 233.1. The Flu intensity in series [4] is reported as 140; in series [5], 17.9.
For `COc1ccc(C(=O)O[C@H]2CC[C@@H]3C(=C[C@H](OC)[C@@H]4[C@@]3(C)CC[C@]3(C)[C@@H]([C@H](C)C[C@H](C=C(C)C)OC(=O)c5ccc(OC)cc5)CC[C@@]43C)C2(C)C)cc1` [KARAVOATE N], the IC50 was 74.6 µM in series [1] and more than 133 µM in series [11]. Besides, the figures for the Ratio in [2] and in [7] were 0.9 and 1.4, respectively. In addition, the Activity was 548.9 in series [3], 528.1 in series [6], 186.7 in [8] and 184.1 in series [10]. The figures for the Flu intensity in series [4] and in series [5] were 9.7 and 6.3, respectively.
